Reference: patent publication US20250380697A1, “ISOXAZOLINE DERIVATIVE COMPOUND AND INSECTICIDAL COMPOSITION COMPRISING SAME” (KYUNG NONG CORPORATION, priority 2022, published 2025)
Read-outs that look alike come from different tables or passages of the source.

Columns and labels:
Format in all cases: in vivo
Plutella xylostella = test: Pesticidal activity against Plutella xylostella, leaf-dipping method; conditions: read-out: larvae mortality rate against Plutella xylostella
Protocol: Cabbage (Daiya) leaves were cut into pieces with a diameter of 5.8 cm, dipped in each of the pesticide compositions prepared in Examples (a 5% acetone solution in which each of the compounds of Synthesis Examples (concentration: 100 ppm) was diluted) for 30 seconds, and sufficiently shade-dried. Then, the shade-dried cabbage leaves were placed in a petri dish (8.8 cm in diameter) covered with a filter paper and repeatedly inoculated 3 times with third instar larvae of Plutella xylostella, 10 larvae per inoculation. In particular, Plutella xylostella larvae used were those which were collected in a place near Gyeongju (Korea) in 2000 and bred in a breeding room for multiple generations. Then, the Plutella xylostella larvae were stored under the conditions of 16 hours of light and 8 hours of dark, 25±1° C., and relative humidity of 50-60%, and the number of live Plutella xylostella larvae was counted 48 hours after the inoculation. Thereafter, the larvae mortality rate was calculated by correcting the density after treatment based on the density before treatment, as shown in Equation 1 and Equation 2 below, and converting the same into the corrected mortality rate for untreated (Reference: A method of computing the effectiveness of an insecticide. J. Econ. Entomol. 18:265˜267. Abbott, 1925).

Spodoptera litura = test: Pesticidal activity against Spodoptera litura, leaf-dipping method; conditions: read-out: mortality rate against Spodoptera litura
Protocol: Cabbage (Daiya) leaves were cut into pieces with a diameter of 5.8 cm, dipped in each of the pesticide compositions prepared in Examples (a 5% acetone solution in which each of the compounds of Synthesis Examples (concentration: 100 ppm) was diluted) for 30 seconds, and sufficiently shade-dried. Then, the shade-dried cabbage leaves were placed in a petri dish (8.8 cm in diameter) covered with a filter paper and repeatedly inoculated 3 times with the second instar larvae of Spodoptera litura, 10 larvae per inoculation. In this case, Spodoptera litura larvae used were those which were purchased from the Bio Utilization Institute (Andong, Korea). Then, the Spodoptera litura larvae were stored under the conditions of 16 hours of light and 8 hours of dark, 25±1° C., and relative humidity of 50-60%, and the number of live Spodoptera litura larvae was counted 48 hours after the inoculation. Thereafter, the larvae mortality rate was calculated in the same manner as in Test Example 1 above.

[1] = tested on: Frankliniella occidentalis; test: Pesticidal activity against Frankliniella occidentalis, spray method; conditions: read-out: mortality rate against Frankliniella occidentalis
Source text: A water-soaked filter paper (9.0 cm in diameter) was placed in an insect breeding dish (Lab Guide®) with a diameter of 9.0 cm and a height of 4.0 cm, and then parafilm (width 4.0 cm×height 4.0 cm) was placed thereon. Before treating with a pesticide composition, 10 adult Frankliniella occidentalis were inoculated per petri dish using a No. 4 brush. In this case, Frankliniella occidentalis adults used were those purchased from the Bio Utilization Institute (Andong, Korea). Then, each of the pesticide compositions prepared in Examples (a diluted solution in which each of the compounds of Synthesis Examples (concentration: 100 ppm) was diluted; the solvent=distilled water+acetone 50,000 mg/L+Triton X-100 100 mg/L) was loaded into a 100 mL small sprayer, and sprayed 10-12 times at a distance of 30 cm and a height of 50 cm, and one cotyledons of soybean, which is a host plant, were added one at a time. Then, the Frankliniella occidentalis adults were stored under the conditions of 16 hours of light and 8 hours of darkness, 25±1° C., and relative humidity of 50-60%, and the number of live Frankliniella occidentalis adults was counted 48 hours after the inoculation. Thereafter, the larvae mortality rate was calculated in the same manner as in Test Example 1 above.

Measured: mortality at 100 ppm

Cc1cc(C2=NOC(c3cccc(C#N)c3)(C(F)(F)F)C2)ccc1C(=O)NC(=O)C1CC1 (stereo not drawn) [Synthesis Example 4]
≥ 80%: Plutella xylostella; 100 ppm, leaf-dipping, third instar larvae, 48 hours after inoculation | Spodoptera litura; 100 ppm, leaf-dipping, second instar larvae, 48 hours after inoculation | [1]; 100 ppm, spray, adults, 48 hours after inoculation

Cc1cc(C2=NOC(c3cc(C(F)(F)F)cc(C(F)(F)F)c3)(C(F)(F)F)C2)ccc1C(=O)NC(=O)C1CC1 (stereo not drawn) [Synthesis Example 5]
≥ 80%: Plutella xylostella; 48 h | Spodoptera litura; 48 h | [1]; 48 h

O=C(NC(=O)C1CC1)c1ccc(C2=NOC(c3cc(Cl)cc(C(F)(F)F)c3)(C(F)(F)F)C2)c2ccccc12 (stereo not drawn) [Synthesis Example 6]
≥ 80%: Plutella xylostella; 48 h | Spodoptera litura; 48 h | [1]; 48 h

O=C(NC(=O)C1CC1)c1ccc(C2=NOC(c3cc(Cl)cc(C(F)(F)F)c3)(C(F)(F)F)C2)cc1Br (stereo not drawn) [Synthesis Example 8]
≥ 80%: Plutella xylostella; 48 h | Spodoptera litura; 48 h | [1]; 48 h

O=C(NC(=O)C1CC1)c1ccc(C2=NOC(c3cc(Cl)cc(C(F)(F)F)c3)(C(F)(F)F)C2)cc1Cl (stereo not drawn) [Synthesis Example 9]
≥ 80%: Plutella xylostella; 48 h | Spodoptera litura; 48 h | [1]; 48 h

O=C(NC(=O)C1CC1)c1ccc(C2=NOC(c3cc(Cl)cc(C(F)(F)F)c3)(C(F)(F)F)C2)cn1 (stereo not drawn) [Synthesis Example 10]
≥ 80%: Plutella xylostella; 48 h | Spodoptera litura; 48 h | [1]; 48 h

Cc1cc(C2=NOC(c3cc(Cl)cc(C(F)(F)F)c3)(C(F)(F)F)C2)ccc1C(=O)N(C)C(=O)C1CC1 (stereo not drawn) [Synthesis Example 11]
≥ 80%: Plutella xylostella; 48 h | Spodoptera litura; 48 h | [1]; 48 h

CN(C(=O)c1ccc(C2=NOC(c3cc(Cl)cc(C(F)(F)F)c3)(C(F)(F)F)C2)c2ccccc12)C(=O)C1CC1 (stereo not drawn) [Synthesis Example 12]
≥ 80%: Plutella xylostella; 48 h | Spodoptera litura; 48 h | [1]; 48 h

Cc1cc(C2=NOC(c3cc(Cl)cc(Cl)c3)(C(F)(F)F)C2)ccc1C(=O)N(C)C(=O)C1CC1 (stereo not drawn) [Synthesis Example 13]
≥ 80%: Plutella xylostella; 48 h | Spodoptera litura; 48 h | [1]; 48 h

CN(C(=O)c1ccc(C2=NOC(c3cc(Cl)cc(Cl)c3)(C(F)(F)F)C2)c2ccccc12)C(=O)C1CC1 (stereo not drawn) [Synthesis Example 14]
≥ 80%: Plutella xylostella; 48 h | Spodoptera litura; 48 h | [1]; 48 h

O=C(c1ccc(C2=NOC(c3cc(Cl)cc(C(F)(F)F)c3)(C(F)(F)F)C2)c2ccccc12)N(CCF)C(=O)C1CC1 (stereo not drawn) [Synthesis Example 17]
≥ 80%: Plutella xylostella; 48 h | Spodoptera litura; 48 h | [1]; 48 h

Cc1ccc(C(=O)N(C)C(=O)c2ccc(C3=NOC(c4cc(Cl)cc(C(F)(F)F)c4)(C(F)(F)F)C3)cc2C)o1 (stereo not drawn) [Synthesis Example 18]
≥ 80%: Plutella xylostella; 48 h | Spodoptera litura; 48 h | [1]; 48 h

CCN(C(=O)c1ccc(C2=NOC(c3cc(Cl)cc(C(F)(F)F)c3)(C(F)(F)F)C2)cc1C)C(=O)C1CC1 (stereo not drawn) [Synthesis Example 19]
≥ 80%: Plutella xylostella; 48 h | Spodoptera litura; 48 h | [1]; 48 h

Cc1cc(C2=NOC(c3cc(Cl)cc(C(F)(F)F)c3)(C(F)(F)F)C2)ccc1C(=O)N(CC(F)(F)F)C(=O)C1CC1 (stereo not drawn) [Synthesis Example 20]
≥ 80%: Plutella xylostella; 48 h | Spodoptera litura; 48 h | [1]; 48 h

Cc1cc(C2=NOC(c3cc(Cl)cc(C(F)(F)F)c3)(C(F)(F)F)C2)ccc1C(=O)N(CC1CC1)C(=O)C1CC1 (stereo not drawn) [Synthesis Example 21]
≥ 80%: Plutella xylostella; 48 h | Spodoptera litura; 48 h | [1]; 48 h

Cc1cc(C2=NOC(c3cc(Cl)cc(C(F)(F)F)c3)(C(F)(F)F)C2)ccc1C(=O)N(C(=O)C1CC1)C(=O)C1CC1 (stereo not drawn) [Synthesis Example 22]
≥ 80%: Plutella xylostella; 48 h | Spodoptera litura; 48 h | [1]; 48 h

Cc1cc(C2=NOC(c3cc(Cl)cc(C(F)(F)F)c3)(C(F)(F)F)C2)ccc1C(=O)N(C(=O)C1CC1)C1CC1 (stereo not drawn) [Synthesis Example 23]
≥ 80%: Plutella xylostella; 48 h | Spodoptera litura; 48 h | [1]; 48 h

Cc1cc(C2=NOC(c3cc(Cl)cc(Cl)c3)(C(F)(F)F)C2)ccc1C(=O)NC(=O)C1(C)CC1 (stereo not drawn) [Synthesis Example 24]
≥ 80%: Plutella xylostella; 48 h | Spodoptera litura; 48 h | [1]; 48 h

Cc1cc(C2=NOC(c3cc(Cl)cc(C(F)(F)F)c3)(C(F)(F)F)C2)ccc1C(=O)NC(=O)C1(C)CC1 (stereo not drawn) [Synthesis Example 25]
≥ 80%: Plutella xylostella; 48 h | Spodoptera litura; 48 h | [1]; 48 h

Cc1cc(C2=NOC(c3cc(Cl)cc(Cl)c3)(C(F)(F)F)C2)ccc1C(=O)NC(=O)C1(C#N)CC1 (stereo not drawn) [Synthesis Example 26]
≥ 80%: Plutella xylostella; 48 h | Spodoptera litura; 48 h | [1]; 48 h

Cc1cc(C2=NOC(c3cc(Cl)cc(C(F)(F)F)c3)(C(F)(F)F)C2)ccc1C(=O)NC(=O)C1(C#N)CC1 (stereo not drawn) [Synthesis Example 27]
≥ 80%: Plutella xylostella; 48 h | Spodoptera litura; 48 h | [1]; 48 h

Cc1cc(C2=NOC(c3cc(Cl)cc(Cl)c3)(C(F)(F)F)C2)ccc1C(=O)NC(=O)C1(C(F)(F)F)CC1 (stereo not drawn) [Synthesis Example 28]
≥ 80%: Plutella xylostella; 48 h | Spodoptera litura; 48 h | [1]; 48 h

Cc1cc(C2=NOC(c3cc(Cl)cc(C(F)(F)F)c3)(C(F)(F)F)C2)ccc1C(=O)NC(=O)C1(C(F)(F)F)CC1 (stereo not drawn) [Synthesis Example 29]
≥ 80%: Plutella xylostella; 48 h | Spodoptera litura; 48 h | [1]; 48 h

Cc1cc(C2=NOC(c3cc(Cl)cc(Cl)c3)(C(F)(F)F)C2)ccc1C(=O)NC(=O)C1(C)CC1(F)F (stereo not drawn) [Synthesis Example 30]
≥ 80%: Plutella xylostella; 48 h | Spodoptera litura; 48 h | [1]; 48 h

Cc1cc(C2=NOC(c3cc(Cl)cc(C(F)(F)F)c3)(C(F)(F)F)C2)ccc1C(=O)NC(=O)C1(C)CC1(F)F (stereo not drawn) [Synthesis Example 31]
≥ 80%: Plutella xylostella; 48 h | Spodoptera litura; 48 h | [1]; 48 h

Cc1cc(C2=NOC(c3cc(Cl)cc(Cl)c3)(C(F)(F)F)C2)ccc1C(=O)NC(=O)C1CCC1 (stereo not drawn) [Synthesis Example 32]
≥ 80%: Plutella xylostella; 48 h | Spodoptera litura; 48 h | [1]; 48 h

Cc1cc(C2=NOC(c3cc(Cl)cc(C(F)(F)F)c3)(C(F)(F)F)C2)ccc1C(=O)NC(=O)C1CCC1 (stereo not drawn) [Synthesis Example 33]
≥ 80%: Plutella xylostella; 48 h | Spodoptera litura; 48 h | [1]; 48 h

Cc1cc(C2=NOC(c3cc(Cl)cc(Cl)c3)(C(F)(F)F)C2)ccc1C(=O)NC(=O)c1ccccc1 (stereo not drawn) [Synthesis Example 37]
≥ 80%: Plutella xylostella; 48 h | Spodoptera litura; 48 h | [1]; 48 h

Cc1cc(C2=NOC(c3cc(Cl)cc(Cl)c3)(C(F)(F)F)C2)ccc1C(=O)NC(=O)C1CCCCC1 (stereo not drawn) [Synthesis Example 39]
≥ 80%: Plutella xylostella; 48 h | Spodoptera litura; 48 h | [1]; 48 h

Cc1cc(C2=NOC(c3cc(Cl)cc(C(F)(F)F)c3)(C(F)(F)F)C2)ccc1C(=O)NC(=O)C1CCCCC1 (stereo not drawn) [Synthesis Example 40]
≥ 80%: Plutella xylostella; 48 h | Spodoptera litura; 48 h | [1]; 48 h

Cc1cc(C2=NOC(c3cc(Cl)cc(Cl)c3)(C(F)(F)F)C2)ccc1C(=O)NC(=O)c1cn(C)nc1C(F)F (stereo not drawn) [Synthesis Example 45]
≥ 80%: Plutella xylostella; 48 h | Spodoptera litura; 48 h | [1]; 48 h

Cn1cc(C(=O)NC(=O)c2ccc(C3=NOC(c4cc(Cl)cc(Cl)c4)(C(F)(F)F)C3)c3ccccc23)c(C(F)F)n1 (stereo not drawn) [Synthesis Example 46]
≥ 80%: Plutella xylostella; 48 h | Spodoptera litura; 48 h | [1]; 48 h
